Source: publication PMC9505425, “Targeting of the Mitochondrial TET1 Protein by Pyrrolo[3,2-b]pyrrole Chelators” (International Journal of Molecular Sciences, 2022)
Values joined by “and” are separate entries in the source; they are usually repeats but may differ in a detail not shown here. Identical values can stand only once.

Legend:
HF-P4 cells = test: MTT cytotoxicity assay, HF-P4; format: cell-based, human; conditions: 48 h; for Cell viability %: repeats
Description: (§1) The effects of the tested compounds 1–6 on HF-P4, U-118 MG, H1299, BT-20, and Caov-3 cell lines were evaluated by the MTT assay during 48 h treatment (Table 2 and Tables S2–S31). In all tested compounds, we recognized a difference in cytotoxicity between healthy cells (HF-P4) and cancer cell lines (BT-20, Caov-3, and H-1299). […] In the case of ovarian cancer, the authors discovered oncogenic and poor prognosis roles of TET1 in epithelial ovarian carcinoma (EOC). TET1 is believed to demethylate the epigenome and activate numerous oncogenic pathways in EOC. The aforementioned study presents a new mechanism where TET1 contributes to tumor development through collaboration with CK2α [21]. The overexpression of the TET1 protein was also found in triple negative breast cancer and was associated with an activation of PI3K/mTOR pathway and decreased overall survival.
(§2) A human dermal fibroblast cell line was used for intracellular localization and cytotoxicity assay (MTT). Human fibroblast cells HF-P4 (human fibroblasts—patient 4) are normal dermal fibroblasts, which were obtained from the residual skin of a healthy patient who underwent plastic surgery (with informed consent of the patient). HF-P4 cell lines were obtained from the Department of Plastic Surgery, Third Faculty of Medicine, Charles University and University Hospital Královské Vinohrady, Prague, Czech Republic, as described by Szabo et al., 2011, and Dvořánková et al., 2019 [88, 89], and have been processed in accordance with the relevant local ethics committee and the Declaration of Helsinki protection of patients’ rights and benefits with written and signed informed consent of each patient. Cells were cultivated under standard conditions in Dulbecco’s modified Eagle’s medium (ATCC, Manassas, VA, USA), supplemented with 10% FBS and streptomycin (100 μg/mL) at 37 °C at a 5% CO2 atmosphere.
(§3) For the cytotoxicity assay, we used the following cell lines: human glioblastoma cell line U118-MG, human mammary gland/breast cell line BT-20, human ovary adenocarcinoma cell line Caov-3, and non-small-cell lung carcinoma H-1299. As previously mentioned, these cell lines contain a high level of the TET1 protein, which corresponds to a lower overall survival. In addition to these cell cultures, we used the human dermal fibroblast cell line HF-P4 as a healthy control. Determination of cytotoxicity was performed using the MTT [3-(4,5-dimethylthiazol-2-yl)-2,5-diphenyltetrazolium bromide] colorimetric assay. Viable cells from each cell line were cultured in 96-well plates (VWR, Stříbrná Skalice, Czech Republic) at a density of 1.0 × 10^5 cells per well and allowed to grow for 24 h in 200 μL of recommended medium. After a 1-day incubation, the medium was replaced with solutions of compounds 1–6 at concentration ranges of 0.1–20 μM. Each concentration was measured four times within one test, and the entire test was repeated three times. Tested compounds 1–6 were dissolved in DMSO and then diluted with corresponding medium to a final volume of 200 μL (maximum 1% DMSO). After 48 h exposure, cells were treated with 175 μL of MTT solution (P-LAB, Prague, Czech Republic) for 2 h. In the next step, MTT solution was removed, and 125 μL of DMSO (Penta, Prague, Czech Republic) was added to solubilize dark crystals of formazan formed in intact cells, and absorbance was measured at 570 nm by the enzyme-linked immunoabsorbent assay reader Infinite® 200 PRO (Tecan, Männedorf, Switzerland). The final DMSO concentration was smaller than 1% (v/v). The absorbance of untreated cells was considered 100%, and IC50 values were calculated by the GraphPad Prism 8 software. As a parameter for cytotoxicity, we used a concentration that inhibits 50% of cell growth (IC50).

[1] = MTT cytotoxicity assay, HF-P4; format: cell-based, human; conditions: human, HF-P4 normal human dermal fibroblasts, repeats, read-out: Cell viability %
Description: as §1, §2, §3

Caov-3 cells = test: MTT cytotoxicity assay, Caov-3; format: cell-based, human
Description: as §1
The human ovary adenocarcinoma cell line (Caov-3), purchased from ATCC (Caov-3 (ATCC® HTB-75™), Manassas, VA, USA), was used for the cytotoxicity assay (MTT). Caov-3 cells were cultivated under standard conditions in Dulbecco’s modified Eagle’s medium (ATCC, Manassas, VA, USA) supplemented with 10% FBS and streptomycin (100 μg/mL) at 37 °C at a 5% CO2 atmosphere.
as §3

BT-20 cells = test: MTT cytotoxicity assay, BT-20; format: cell-based, human
Description: as §1
The human mammary gland/breast cell line (BT-20), purchased from ATCC (BT-20 (ATCC® HTB-19™), Manassas, VA, USA), was used for the cytotoxicity assay (MTT), and BT-20 cells were cultivated under standard conditions in Eagle’s minimum essential medium (ATCC, Manassas, VA, USA) supplemented with 10% FBS and streptomycin (100 μg/mL) at 37 °C at a 5% CO2 atmosphere.
as §3

CCN(CC)c1ccc(/C=N/NC(=O)c2ccc(-c3cc4c(cc(-c5ccc(C(=O)N/N=C/c6ccc(N(CC)CC)cc6O)cc5)n4-c4ccc(C)cc4)n3-c3ccc(C)cc3)cc2)c(O)c1 [Compound 2]
Cell viability % (HF-P4 cells; HF-P4, 100 nM, 0.1 µM): 112.667% and 100.0956% and 124.6811% | Cell viability % (HF-P4 cells; HF-P4, 500 nM, 0.5 µM): 121.1654% and 117.1851% | Cell viability % (HF-P4 cells; HF-P4, 750 nM, 0.75 µM): 106.3799% and 108.6149% | Cell viability % (HF-P4 cells; HF-P4, 1 uM, 1 µM): 107.7419% and 92.48% | Cell viability % (HF-P4 cells; HF-P4, 2.5 uM, 2.5 µM): 91.9392% and 112.4492% and 91.41% | Cell viability % (HF-P4 cells; HF-P4, 5 uM, 5 µM): 91.3% and 88.77% | Cell viability % (HF-P4 cells; HF-P4, 7.5 uM, 7.5 µM): 87.79% and 98.14% | Cell viability % (HF-P4 cells; HF-P4, 10 uM, 10 µM): 82.92% and 77.13% | Cell viability % (HF-P4 cells; HF-P4, 15 uM, 15 µM): 82.13% and 69.58% | Cell viability % (HF-P4 cells; HF-P4, 20 uM, 20 µM): 51.8655% and 56.81% | IC50 (HF-P4 cells; Homo sapiens, MTT): > 20 µM | viability at 48 h, 0.5 µM ([1]; HF-P4, 500 nM): 120% | viability at 48 h, 0.75 µM ([1]; HF-P4, 750 nM): 100% | viability at 48 h, 1 µM ([1]; HF-P4, 1 uM): 107% | viability at 48 h, 5 µM ([1]; HF-P4, 5 uM): 104% | viability at 48 h, 7.5 µM ([1]; HF-P4, 7.5 uM): 84.4% | viability at 48 h, 10 µM ([1]; HF-P4, 10 uM): 83.1% | viability at 48 h, 15 µM ([1]; HF-P4, 15 uM): 69.4% | viability at 48 h, 20 µM ([1]; HF-P4, 20 uM): 60.3% | melting point: 306 to 307 °C | Cell viability % (Caov-3 cells; Caov-3, 100 nM, 48 h, repeats, 0.1 µM): 105.779% and 93.87% | Cell viability % (Caov-3 cells; Caov-3, 500 nM, 48 h, repeats, 0.5 µM): 78.8105% and 77.85% | Cell viability % (Caov-3 cells; Caov-3, 750 nM, 48 h, repeats, 0.75 µM): 73.37% and 52.9% and 76.29% | Cell viability % (Caov-3 cells; Caov-3, 1 uM, 48 h, repeats, 1 µM): 78.5% and 67.16% and 48.54% | Cell viability % (Caov-3 cells; Caov-3, 2.5 uM, 48 h, repeats, 2.5 µM): 64.6096% and 82.47% and 61.81% | Cell viability % (Caov-3 cells; Caov-3, 5 uM, 48 h, repeats, 5 µM): 59.21% and 86.03% and 70.4727% | Cell viability % (Caov-3 cells; Caov-3, 7.5 uM, 48 h, repeats, 7.5 µM): 79.2% and 67.97% | Cell viability % (Caov-3 cells; Caov-3, 10 uM, 48 h, repeats, 10 µM): 51.36% and 52.95% | Cell viability % (Caov-3 cells; Caov-3, 15 uM, 48 h, repeats, 15 µM): 50.9752% and 42.33% | Cell viability % (Caov-3 cells; Caov-3, 20 uM, 48 h, repeats, 20 µM): 25.3% and 23.25% | viability at 0.1 µM (Caov-3 cells; Homo sapiens, Caov-3, 48 h, Caov-3, 100 nM, repeats, read-out: Cell viability %): 95.3% | viability at 0.5 µM (Caov-3 cells; Homo sapiens, Caov-3, 48 h, Caov-3, 500 nM, repeats, read-out: Cell viability %): 76.2% | viability at 7.5 µM (Caov-3 cells; Homo sapiens, Caov-3, 48 h, Caov-3, 7.5 uM, repeats, read-out: Cell viability %): 73.3% | viability at 10 µM (Caov-3 cells; Homo sapiens, Caov-3, 48 h, Caov-3, 10 uM, repeats, read-out: Cell viability %): 52.1% | viability at 15 µM (Caov-3 cells; Homo sapiens, Caov-3, 48 h, Caov-3, 15 uM, repeats, read-out: Cell viability %): 42.8% | viability at 20 µM (Caov-3 cells; Homo sapiens, Caov-3, 48 h, Caov-3, 20 uM, repeats, read-out: Cell viability %): 28.4% | IC50 (Caov-3 cells; Homo sapiens, Caov-3, MTT, 48 h): 13.3 µM | Cell viability % (BT-20 cells; BT-20, 100 nM, 48 h, repeats, 0.1 µM): 89.53% and 96.38% and 111.3369% | Cell viability % (BT-20 cells; BT-20, 500 nM, 48 h, repeats, 0.5 µM): 89.9% and 93.14% | Cell viability % (BT-20 cells; BT-20, 750 nM, 48 h, repeats, 0.75 µM): 105.3004% and 102.8159% | Cell viability % (BT-20 cells; BT-20, 1 uM, 48 h, repeats, 1 µM): 123.7041% and 111.0298% and 97.09% | Cell viability % (BT-20 cells; BT-20, 2.5 uM, 48 h, repeats, 2.5 µM): 100.513% and 96.3761% | Cell viability % (BT-20 cells; BT-20, 5 uM, 48 h, repeats, 5 µM): 79.33% and 68.98% | Cell viability % (BT-20 cells; BT-20, 7.5 uM, 48 h, repeats, 7.5 µM): 62.62% and 57% | Cell viability % (BT-20 cells; BT-20, 10 uM, 48 h, repeats, 10 µM): 57.5% and 51.13% | Cell viability % (BT-20 cells; BT-20, 15 uM, 48 h, repeats, 15 µM): 49.9% and 44.54% | Cell viability % (BT-20 cells; BT-20, 20 uM, 48 h, repeats, 20 µM): 24.61% and 32.37% | viability at 0.5 µM (BT-20 cells; Homo sapiens, BT-20, 48 h, BT-20, 500 nM, repeats, read-out: Cell viability %): 89.8% | viability at 0.75 µM (BT-20 cells; Homo sapiens, BT-20, 48 h, BT-20, 750 nM, repeats, read-out: Cell viability %): 88.9% | viability at 2.5 µM (BT-20 cells; Homo sapiens, BT-20, 48 h, BT-20, 2.5 uM, repeats, read-out: Cell viability %): 98.6% | viability at 5 µM (BT-20 cells; Homo sapiens, BT-20, 48 h, BT-20, 5 uM, repeats, read-out: Cell viability %): 73.8% | viability at 7.5 µM (BT-20 cells; Homo sapiens, BT-20, 48 h, BT-20, 7.5 uM, repeats, read-out: Cell viability %): 60.2% | viability at 10 µM (BT-20 cells; Homo sapiens, BT-20, 48 h, BT-20, 10 uM, repeats, read-out: Cell viability %): 45% | viability at 15 µM (BT-20 cells; Homo sapiens, BT-20, 48 h, BT-20, 15 uM, repeats, read-out: Cell viability %): 46.7% | viability at 20 µM (BT-20 cells; Homo sapiens, BT-20, 48 h, BT-20, 20 uM, repeats, read-out: Cell viability %): 28.3% | IC50 (BT-20 cells; Homo sapiens, BT-20, MTT, 48 h): 11.9 µM
